# Measured values reported in PMC1951785, “Enlightening Energy Parasitism by Analysis of an ATP/ADP Transporter from Chlamydiae” (PLoS Biology, 2007).
# Legend:
# PamNTT1 = target: T1, PamNTT1 (Candidatus Protochlamydia amoebophila, UniProt Q70GF7); assay: [α[…]]ADP uptake into proteoliposomes, anion exchange separation; type: biochemical; conditions: apparent; ADP import in homo-exchange with 10 mM luminal ADP; pH 7.5; 30 °C; labelled compound
# T1 construct: gene ntt1; full-length, N-terminal His tag (pET16b)
# T1 sequence (Q70GF7 1-513): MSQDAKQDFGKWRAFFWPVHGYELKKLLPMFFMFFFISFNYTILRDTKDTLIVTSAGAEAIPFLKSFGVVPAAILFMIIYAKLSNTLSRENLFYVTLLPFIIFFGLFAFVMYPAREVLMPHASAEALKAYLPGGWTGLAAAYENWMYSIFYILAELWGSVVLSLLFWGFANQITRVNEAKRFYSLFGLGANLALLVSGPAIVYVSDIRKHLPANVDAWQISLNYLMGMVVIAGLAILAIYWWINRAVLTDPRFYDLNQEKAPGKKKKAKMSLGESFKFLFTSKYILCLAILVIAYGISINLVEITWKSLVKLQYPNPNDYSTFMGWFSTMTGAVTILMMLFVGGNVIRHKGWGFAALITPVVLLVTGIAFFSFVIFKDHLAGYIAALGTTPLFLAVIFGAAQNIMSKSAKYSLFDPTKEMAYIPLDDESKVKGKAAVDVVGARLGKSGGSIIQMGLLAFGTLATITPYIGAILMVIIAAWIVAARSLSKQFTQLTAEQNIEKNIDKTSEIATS
# purified protein = substrate: Nc1ncnc2c1ncn2[C@@H]1O[C@H](COP(=O)(O)OP(=O)(O)OP(=O)(O)O)[C@@H](O)[C@H]1O; assay: purified protein; type: biochemical, Candidatus Protochlamydia amoebophila; conditions: apparent, ATP import in exchange with 10 mM luminal ADP, pH 7.5, 30 °C, labelled compound
Molecule,K M (PamNTT1),Km (purified protein) [µM]
Nc1ncnc2c1ncn2[C@@H]1O[C@H](COP(=O)(O)OP(=O)(O)O)[C@@H](O)[C@H]1O [ADP],Approximately equivalent K M values were estimated for the ADPim/ADPex and ATPim/ATPex homo-exchange mode,–
"PamNTT1 (Candidatus Protochlamydia amoebophila UWE25) (protein, full-length, N-terminal His tag (pET16b)) MSQDAKQDFGKWRAFFWPVHGYELKKLLPMFFMFFFISFNYTILRDTKDTLIVTSAGAEAIPFLKSFGVVPAAILFMIIYAKLSNTLSRENLFYVTLLPFIIFFGLFAFVMYPAREVLMPHASAEALKAYLPGGWTGLAAAYENWMYSIFYILAELWGSVVLSLLFWGFANQITRVNEAKRFYSLFGLGANLALLVSGPAIVYVSDIRKHLPANVDAWQISLNYLMGMVVIAGLAILAIYWWINRAVLTDPRFYDLNQEKAPGKKKKAKMSLGESFKFLFTSKYILCLAILVIAYGISINLVEITWKSLVKLQYPNPNDYSTFMGWFSTMTGAVTILMMLFVGGNVIRHKGWGFAALITPVVLLVTGIAFFSFVIFKDHLAGYIAALGTTPLFLAVIFGAAQNIMSKSAKYSLFDPTKEMAYIPLDDESKVKGKAAVDVVGARLGKSGGSIIQMGLLAFGTLATITPYIGAILMVIIAAWIVAARSLSKQFTQLTAEQNIEKNIDKTSEIATS",–,17
